From patent publication US7524853B2 (Solvay Pharmaceuticals B.V., priority 2003, dated 2009)

Legend:
Type in all cases: cell-based
[1] = target: T1, 17β-hydroxysteroid dehydrogenase type 1 (17β-HSD type 1) (Homo sapiens, UniProt P14061); test: Inhibition of 17β-HSD type 1 in MCF-7 cells stably expressing the isoenzyme (tritium labeled estrone conversion, HPLC); conditions: MCF7, MCF-7 cells expressing 17β-HSD type 1, 2 nM tritium labeled estrone; for inhibition at 1 µM: 1 μM test compound, read-out: % Inhibition HSD1 1 μM; for inhibition at 10 µM: 10 μM test compound, read-out: % Inhibition HSD1 10 μM
T1 construct: expressed in transfected cells; host or cells: MCF-7
T1 sequence (P14061 1-328): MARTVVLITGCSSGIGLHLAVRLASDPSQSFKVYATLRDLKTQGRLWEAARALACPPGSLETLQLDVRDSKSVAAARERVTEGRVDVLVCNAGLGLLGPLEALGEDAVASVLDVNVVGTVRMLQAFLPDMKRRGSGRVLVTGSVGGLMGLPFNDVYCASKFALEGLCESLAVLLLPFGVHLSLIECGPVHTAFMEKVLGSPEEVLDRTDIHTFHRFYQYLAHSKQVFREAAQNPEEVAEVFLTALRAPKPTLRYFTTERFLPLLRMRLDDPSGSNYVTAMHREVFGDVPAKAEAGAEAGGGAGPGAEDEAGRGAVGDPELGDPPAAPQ
How it was run: (§1)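 MCF-7 lines stably expressing each 17β-HSD isoenzyme incubated in growth medium with compound at two concentrations and 2 nM tritiated substrate (estrone, type 1; estradiol, type 2; androstenedione, type 3). Reaction stopped with TCA; conversion measured by HPLC with flow scintillation, inhibition relative to compound-free control.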

[2] = target: T2, 17β-hydroxysteroid dehydrogenase type 2 (17β-HSD type 2) (Homo sapiens, UniProt P37059); test: Inhibition of 17β-HSD type 2 in MCF-7 cells stably expressing the isoenzyme (tritium labeled estradiol conversion, HPLC); conditions: MCF7, MCF-7 cells expressing 17β-HSD type 2, 2 nM tritium labeled estradiol; for inhibition at 1 µM: 1 μM test compound, read-out: % Inhibition HSD2 1 μM; for inhibition at 10 µM: 10 μM test compound, read-out: % Inhibition HSD2 10 μM
T2 construct: expressed in transfected cells; host or cells: MCF-7
T2 sequence (P37059 1-387): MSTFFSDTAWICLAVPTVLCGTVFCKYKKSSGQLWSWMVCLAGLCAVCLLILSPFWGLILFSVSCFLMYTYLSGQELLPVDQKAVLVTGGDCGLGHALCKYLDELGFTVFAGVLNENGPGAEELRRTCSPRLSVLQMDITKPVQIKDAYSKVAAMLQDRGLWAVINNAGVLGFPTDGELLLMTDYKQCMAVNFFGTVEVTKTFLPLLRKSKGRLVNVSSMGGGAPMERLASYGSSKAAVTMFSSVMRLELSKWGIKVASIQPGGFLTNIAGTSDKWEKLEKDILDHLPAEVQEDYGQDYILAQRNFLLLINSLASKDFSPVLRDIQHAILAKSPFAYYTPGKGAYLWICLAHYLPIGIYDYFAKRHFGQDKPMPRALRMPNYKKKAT
How it was run: as §1

[3] = target: T3, 17β-hydroxysteroid dehydrogenase type 3 (17β-HSD type 3) (Homo sapiens, UniProt P37058); test: Inhibition of 17β-HSD type 3 in MCF-7 cells stably expressing the isoenzyme (tritium labeled androstenedione conversion, HPLC); conditions: MCF7, MCF-7 cells expressing 17β-HSD type 3, 2 nM tritium labeled androstenedione; for inhibition at 1 µM: 1 μM test compound, read-out: % Inhibition HSD3 1 μM; for inhibition at 10 µM: 10 μM test compound, read-out: % Inhibition HSD3 10 μM
T3 construct: expressed in transfected cells; host or cells: MCF-7
T3 sequence (P37058 1-310): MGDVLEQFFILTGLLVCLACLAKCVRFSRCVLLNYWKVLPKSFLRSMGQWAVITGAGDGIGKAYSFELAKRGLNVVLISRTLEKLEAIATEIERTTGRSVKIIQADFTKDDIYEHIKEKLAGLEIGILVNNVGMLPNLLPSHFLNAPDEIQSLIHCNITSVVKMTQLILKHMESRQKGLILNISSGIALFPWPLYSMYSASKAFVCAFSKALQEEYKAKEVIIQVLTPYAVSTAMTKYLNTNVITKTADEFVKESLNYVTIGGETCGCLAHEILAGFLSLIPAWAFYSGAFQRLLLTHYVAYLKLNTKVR
How it was run: as §1

Compound	inhibition at 1 µM [1] [%]	inhibition at 10 µM [1] [%]	inhibition at 1 µM [2] [%]	inhibition at 10 µM [2] [%]	inhibition at 1 µM [3] [%]	inhibition at 10 µM [3] [%]
COc1cc(-c2nc3sc4c(O)cccc4c3c(=O)n2CC(C)C)c(Br)c(OC)c1OC [No. 117, 8-Hydroxy-3-isobutyl-2-(2-bromo-3,4,5-trimethoxyphenyl)-3H-benzo[4,5]thieno[2,3-d]pyrimidin-4-one]	39.3	62.2	19.7	20.7	19.7	44.1
COc1cc(-c2nc3sc4c(c3c(=O)n2Cc2ccco2)CCCC4)cc(OC)c1OC [No. 119, 3-Furan-2-ylmethyl-2-(3,4,5-trimethoxylphenyl)-5,6,7,8-tetrahydro-3H-benzo[4,5]thieno[2,3-d]pyrimidin-4-one]	9.6	27.9	25.1	30.1	2.3	19.1
COc1cc(-c2nc3sc4c(O)cccc4c3c(=O)n2Cc2ccc(Br)o2)cc(OC)c1OC [No. 122, 3-(5-Bromofuran-2-ylmethy1)-8-hydroxy-2-(3,4,5-trimethoxyphenyl)-3H-benzo[4,5]thieno[2,3-d]pyrimidin-4-one]	13.9	49	15.4	26.2	9.4	56.2
COc1cc(-c2nc3sc4c(c3c(=O)n2Cc2ccccc2)CCC(Cl)C4=O)c(Cl)c(OC)c1OC (stereo not drawn) [No. 123, 3-Benzyl-7-chloro-2-(2-chloro-3,4,5-trimethoxyphenyl)-6,7-dihydro-3H,5H-benzo[4,5]thieno[2,3-d]pyrimidine-4,8-dione]	19.4	62.9	24.6	40.2	1.3	29.1
CCC(C)Cn1c(-c2cc(OC)c(OC)c(OC)c2)nc2sc3c(c2c1=O)CCCC3 (stereo not drawn) [No. 125, 3-(2-Methylbutyl)-2-(3,4,5-trimethoxyphenyl)-5,6,7,8-tetrahydro-3H-benzo[4,5]thieno[2,3-d]pyrimidin-4-one]	34.7	49.9	11.7	19.8	10.9	21
CCC(C)Cn1c(-c2cc(OC)c(OC)c(OC)c2)nc2sc3c(O)cccc3c2c1=O (stereo not drawn) [No. 129, 8-Hydroxy-3-(2-methylbutyl)-2-(3,4,5-trimethoxyphenyl)-3H-benzo[4,5]thieno[2,3-d]pyrimidin-4-one]	46.8	85.3	23.9	53.1	34.7	78.6
COc1cc(-c2nc3sc4c(c3c(=O)n2CC2CCCO2)CCCC4=O)cc(OC)c1OC (stereo not drawn) [No. 131, 3-(Tetrahydro-furan-2-ylmethyl)-2-(3,4,5-trimethoxyphenyl)-6,7-dihydro-3H,5H-benzo[4,5]thieno[2,3-d]pyrimidine-4,8-dione]	37.7	84.7	31.2	40.1	30.9	80.1
CCCCn1c(-c2cccs2)nc2sc3c(c2c1=O)CCCC3=O [No. 134, 3-Butyl-2-thiophen-2-yl-6,7-dihydro-3H,5H-benzo[4,5]thieno[2,3-d]pyrimidine-4,8-dione]	16	7.9	9.9	11.6	17.2	21.6

More lines, now with the values ahead:

inhibition at 1 µM [1] [%]	inhibition at 10 µM [1] [%]	inhibition at 1 µM [2] [%]	inhibition at 10 µM [2] [%]	inhibition at 1 µM [3] [%]	inhibition at 10 µM [3] [%]	Compound
31	51.5	23.6	24.4	10.8	24.4	COc1cc(-c2nc3sc4c(OC(C)=O)cccc4c3c(=O)n2CC(C)C)c(Br)c(OC)c1OC [No. 118, Acetic acid 2-(2-bromo-3,4,5-trimethoxyphenyl)-3-isobutyl-4-oxo-3,4-dihydro-benzo[4,5]-thieno[2,3-d]pyrimidin-8-yl ester]
17.6	52.1	19.9	35.4	12.4	38.4	COc1cc(-c2nc3sc4c(c3c(=O)n2Cc2ccco2)CCCC4=O)cc(OC)c1OC [No. 120, 3-Furan-2-ylmethyl-2-(3,4,5-trimethoxylphenyl)-6,7-dihydro-3H,5H-benzo[4,5]thieno[2,3-d]pyrimidine-4,8-dione]
40.2	73.3	0.2	17.6	8.3	42.4	COc1cc(-c2nc3sc4c(O)cccc4c3c(=O)n2Cc2ccccc2)c(Cl)c(OC)c1OC [No. 124, 3-Benzyl-2-(2-chloro-3,4,5-trimethoxyphenyl)-8-hydroxy-3H-benzo[4,5]thieno[2,3-d]pyrimidin-4-one]
27.4	59.3	6.6	-9	8	36.3	CCC(C)Cn1c(-c2cc(OC)c(OC)c(OC)c2)nc2sc3c(c2c1=O)CCCC3=O (stereo not drawn) [No. 126, 3-(2-Methylbutyl)-2-(3,4,5-trimethoxyphenyl)-6,7-dihydro-3H,5H-benzo[4,5]thieno[2,3-d]pyrimidine-4,8-dione]
40.3	91.3	-0.4	5.7	4.8	29.3	CCC(C)Cn1c(-c2cc(OC)c(OC)c(OC)c2)nc2sc3c(c2c1=O)CCC(Br)C3=O (stereo not drawn) [No. 127, 7-Bromo-3-(2-methylbutyl)-2-(3,4,5-trimethoxyphenyl)-6,7-dihydro-3H,5H-benzo[4,5]thieno[2,3-d]pyrimidine-4,8-dione]
17.9	25.9	-4.9	0	4.7	6.3	CCC(C)Cn1c(-c2cc(OC)c(OC)c(OC)c2Br)nc2sc3c(c2c1=O)CCC(Br)(Br)C3=O (stereo not drawn) [No. 128, 7,7-Dibromo-2-(2-bromo-3,4,5-trimethoxyphenyl)-3-(2-methylbutyl)-6,7-dihydro-3H,5-benzo[4,5]thieno[2,3-d]pyrimidine-4,8-dione]
23.8	53.9	22.8	16.9	16.9	24.9	COc1cc(-c2nc3sc4c(c3c(=O)n2CC2CCCO2)CCC(Br)C4=O)c(Br)c(OC)c1OC (stereo not drawn) [No. 132, 7-Bromo-2-(2-bromo-3,4,5-trimethoxyphenyl)-3-(tetrahydrofuran-2-ylmethyl)-6,7-dihydro-3H,5H-benzo[4,5]thieno[2,3-d]pyrimidine-4,8-dione]
18.2	58.4	6.8	24.3	18.7	37.7	COc1cc(-c2nc3sc4c(O)cccc4c3c(=O)n2CC2CCCO2)c(Br)c(OC)c1OC (stereo not drawn) [No. 133, 2-(2-Bromo-3,4,5-trimethoxyphenyl)-8-hydroxy-3-(tetrahydrofuran-2-ylmethyl)-3H-benzo[4,5]thieno[2,3-d]pyrimidin-4-one]
